Measurements taken from patent US20210255193A1, “LYSINE REACTIVE PROBES AND USES THEREOF” (The Scripps Research Institute, priority 2017, published 2021).
Values belong to the compound of their own block, whether it stands above or below them.

Tests used:
Experiment in all cases: competitive isoTOP-ABPP
Assay type in all cases: binding
[1] = target: T1, ABHD10 Abhydrolase domain-containing protein 10, mitochondrial (Homo sapiens, UniProt Q9NUJ1); design: key to isoTOP-ABPP reactivity ratio at lysine Q9NUJ1_K185: R = MS1 peak area ratio, DMSO (heavy) / compound-treated (light); capped at 20; settings: for R value (DMSO/fragment) for probe 1 labeling: Q9NUJ1_K185; for R value (DMSO/fragment) for probe 1 labeling / isoTOP-ABPP reactivity ratio at lysine Q9NUJ1_K185 / isoTOP-ABPP ratio (R) at liganded lysine Q9NUJ1_K185: 50 uM, in vitro; for R value (DMSO/fragment) for probe 1 labeling / isoTOP-ABPP reactivity ratio at lysine Q9NUJ1_K185: 231 sol; for isoTOP-ABPP ratio (R) at liganded lysine Q9NUJ1_K185: sol, 231
T1 construct: endogenous in cells; host or cells: MDA-MB-231 lysate
T1 sequence (Q9NUJ1 53-306): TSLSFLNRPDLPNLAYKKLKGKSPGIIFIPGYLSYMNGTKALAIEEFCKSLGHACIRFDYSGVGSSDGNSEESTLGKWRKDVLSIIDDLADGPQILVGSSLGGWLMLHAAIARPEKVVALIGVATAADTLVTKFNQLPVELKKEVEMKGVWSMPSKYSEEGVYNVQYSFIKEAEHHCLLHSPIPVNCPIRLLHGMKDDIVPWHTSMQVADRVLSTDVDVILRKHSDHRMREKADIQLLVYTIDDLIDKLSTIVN
Protocol: (§1) In vitro covalent fragment treatment for isoTOP-ABPP. All compounds were made up as solutions in DMSO (100×) and were used at a final concentration of 50 μM for activated esters and 100 μM for guanidinylating agents. For each profiling sample, 0.5 ml of lysate was treated with 5 μl of the 100× compound stock solution or 5 μl of DMSO. Samples were treated with activated esters for
(§2) STP-alkyne labeling and click chemistry. For concentration-dependent reactivity measurements by isoTOP-ABPP, 0.5 ml proteome aliquots were treated at ambient temperature with 1 mM STP-alkyne 1 (5 μl of 100 mM stock in DMSO) and 0.1 mM STP alkyne 1 (5 μl of 10 mM stock in DMSO), respectively. For competitive isoTOP-ABPP, after in vitro fragment treatment (detailed above), the samples were labeled for 1 h at ambient temperature with 0.1 mM STP-alkyne 1 (5 μl of 10 mM stock in DMSO). Samples were conjugated by copper-mediated azide-alkyne cycloaddition (CuAAC) to either the light (1 mM STP-alkyne or fragment treated) or heavy (0.1 mM STP-alkyne or DMSO treated) TEV tags (10 μl of 5 mM stocks in DMSO, final concentration=100 μM) using tris(2-carboxyethyl)phosphine hydrochloride
(§3) R value calculation and processing. The ratios of light and heavy MS1 peaks for each unique peptide were quantified with a CIMAGE software using default parameters (3 MS1 acquisitions per peak and signal to noise threshold set to 2.5). For reactivity measurements by isoTOP-ABPP, the R value was calculated from the ratio of MS1 peak areas, comparing the 1 mM STP alkyne sample (light TEV tag) with the 0.1 mM STP alkyne sample (heavy TEV tag). For competitive isoTOP-ABPP, the R value was calculated from the ratio of MS1 peak areas, comparing the DMSO treated sample (heavy TEV tag) with the compound treated sample (light TEV tag). […] Ratios for unique peptide entries are calculated for each experiment; overlapping peptides with the same modified lysine (for example, different charge states, MudPIT chromatographic steps or tryptic termini) are grouped together and the median ratio is reported as the final ratio (R). The peptide ratios reported by CIMAGE were further filtered to ensure the removal or correction of low-quality ratios in each individual data set. The quality filters applied were the following: removal of half tryptic peptides; for ratios with high standard deviations from the median (90% of the median or above) the lowest ratio was taken instead of the median; removal of peptides with R=20 and only a single MS2 event triggered during the elution of the parent ion; manual annotation of all the peptides with ratios of 20, removing any peptides with low quality elution profiles that remained after the previous curation steps (only done for competitive isoTOP-ABPP).
(§4) Cross-data processing for fragment screening. For compound treated samples, biological replicates of the same condition were averaged, if the standard deviation was below 60% of the mean; otherwise, for lysines with at least one R value <4 for a particular compound, the lowest value of the ratio set was taken. For lysines, where all R values for a particular compound were ≥4, the average was reported. For peptides containing several possible modified lysines, the lysine with the highest number of quantification events was used for analysis and the remaining, redundant peptides were reported as alternative modification sites. Peptides included in the aggregate dataset (those used for further bioinformatics and statistical analyses) were required to have been quantified in 2 experiments for competitive isoTOP-ABPP. Lysines were categorized as liganded, if they had at least one ratio R≥4 (hit fragments). For liganded lysines with R=20 for all liganding events, lysines were required to have been quantified with R=20 in two separate experiments and were further required to have been quantified with R<20 in one additional experiment.

[2] = target: T2, ERO1L ERO1-like protein alpha (Homo sapiens, UniProt Q96HE7); settings: 50 uM, in vitro
T2 construct: isoTOP-ABPP experiments performed in cell lysates (in vitro); endogenous in cells; host or cells: soluble proteome of human cancer cell lines (MDA-MB-231; Ramos and Jurkat also prepared)
T2 sequence (Q96HE7 24-468): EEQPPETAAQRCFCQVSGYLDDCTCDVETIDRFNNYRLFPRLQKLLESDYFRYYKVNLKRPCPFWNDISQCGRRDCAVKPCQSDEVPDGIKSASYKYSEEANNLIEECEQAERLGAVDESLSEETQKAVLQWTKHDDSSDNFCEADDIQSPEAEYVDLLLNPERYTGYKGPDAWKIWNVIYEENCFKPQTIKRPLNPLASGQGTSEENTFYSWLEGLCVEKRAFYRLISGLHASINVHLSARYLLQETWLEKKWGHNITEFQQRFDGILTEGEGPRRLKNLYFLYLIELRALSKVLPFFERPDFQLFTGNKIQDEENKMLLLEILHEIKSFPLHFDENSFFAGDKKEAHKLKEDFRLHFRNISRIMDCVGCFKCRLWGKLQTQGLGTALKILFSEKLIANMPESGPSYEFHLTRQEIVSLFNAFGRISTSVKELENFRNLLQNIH
Procedure, shortened: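 Readout: isotopic light/heavy MS1 peak-area ratio (R, DMSO heavy over compound light), median across peptides sharing a modified lysine. Lysate received fragment (activated esters 50 μM, guanidinylating agents 100 μM final) or DMSO, then 0.1 mM STP-alkyne probe for 1 h at ambient temperature.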

[3] = target: T3, MAP1LC3B Microtubule-associated proteins 1A/1B light chain (Homo sapiens, UniProt Q9GZQ8); design: key to isoTOP-ABPP reactivity ratio at lysine Q9GZQ8_K51: R = MS1 peak area ratio, DMSO (heavy) / compound-treated (light); settings: for R value (DMSO/fragment) for probe 1 labeling: Q9GZQ8_K51; for R value (DMSO/fragment) for probe 1 labeling / isoTOP-ABPP reactivity ratio at lysine Q9GZQ8_K51 / isoTOP-ABPP ratio (R) at liganded lysine Q9GZQ8_K51: 50 uM, in vitro; for R value (DMSO/fragment) for probe 1 labeling / isoTOP-ABPP reactivity ratio at lysine Q9GZQ8_K51: 231 sol; for isoTOP-ABPP ratio (R) at liganded lysine Q9GZQ8_K51: sol, 231
T3 construct: isoTOP-ABPP experiments performed in cell lysates (in vitro); endogenous in cells; host or cells: soluble proteome of human cancer cell lines (MDA-MB-231; Ramos and Jurkat also prepared)
Protocol: as §1, §2, §3, §4

R value (DMSO/fragment) for probe 1 labeling [1]: 4.7
R value (DMSO/fragment) for probe 1 labeling ([2]; Q96HE7_K413, 231 sol): 1.4
Compound: O=C(Oc1c(F)c(F)c(F)c(F)c1F)c1cc(C(F)(F)F)cc(C(F)(F)F)c1 [fragment 21, Pentafluorophenyl 3,5-bis(trifluoromethyl)benzoate]

R value (DMSO/fragment) for probe 1 labeling [1]: 1.5
R value (DMSO/fragment) for probe 1 labeling [3]: 1.2
Compound: Cn1cc(CC(=O)Oc2c(F)c(F)c(F)c(F)c2F)c2ccccc21 [fragment 22, Pentafluorophenyl 2-(1-methyl-1H-indol-3-yl)acetate]

R value (DMSO/fragment) for probe 1 labeling [1]: 2.0
R value (DMSO/fragment) for probe 1 labeling [3]: 0.7
Compound: COc1cc(CCC(=O)Oc2c(F)c(F)c(F)c(F)c2F)cc(OC)c1OC [fragment 23, Pentafluorophenyl 3-(3,4,5-trimethoxyphenyl)propanoate]

isoTOP-ABPP reactivity ratio at lysine Q9GZQ8_K51 [3]: 1.1
Compound: O=C(Oc1c(F)c(F)c(F)c(F)c1F)C1CCN(C(=O)OCc2ccccc2)CC1 [fragment 24, 1-Benzyl 4-(pentafluorophenyl) piperidine-1,4-dicarboxylate]

isoTOP-ABPP reactivity ratio at lysine Q9NUJ1_K185 [1]: 1.5
isoTOP-ABPP reactivity ratio at lysine Q9GZQ8_K51 [3]: 0.9
Compound: O=C(Oc1c(F)c(F)c(F)c(F)c1F)c1ccc2ccccc2n1 [fragment 25, Pentafluorophenyl quinoline-2-carboxylate]

isoTOP-ABPP reactivity ratio at lysine Q9NUJ1_K185 [1]: 1.5
isoTOP-ABPP reactivity ratio at lysine Q9GZQ8_K51 [3]: 1.2
Compound: O=C(CCc1coc2cc(F)ccc2c1=O)Oc1c(F)c(F)c(F)c(F)c1F [fragment 26, Pentafluorophenyl 3-(7-fluoro-4-oxo-4H-chromen-3-yl)propanoate]

isoTOP-ABPP reactivity ratio at lysine Q9NUJ1_K185 [1]: 1.9
isoTOP-ABPP reactivity ratio at lysine Q9GZQ8_K51 [3]: 1.0
Compound: O=C(CN1C(=O)c2ccccc2C1=O)Oc1c(F)c(F)c(F)c(F)c1F [fragment 27, Pentafluorophenyl 2-(1,3-dioxoisoindolin-2-yl)acetate]

isoTOP-ABPP ratio, lysine Q9NUJ1_K185 ([1]; 50 uM_231_sol_in vitro): 1.8
isoTOP-ABPP ratio, lysine Q9GZQ8_K51 ([3]; 50 uM_231_sol_in vitro): 0.9
Compound: O=C(Oc1c(F)c(F)c(C(F)(F)F)c(F)c1F)c1cc(C(F)(F)F)cc(C(F)(F)F)c1 [fragment 47, 2,3,5,6-Tetrafluoro-4-(trifluoromethyl)phenyl 3,5-bis(trifluoromethyl)benzoate]

isoTOP-ABPP ratio, lysine Q9NUJ1_K185 ([1]; 50 uM_231_sol_in vitro): 1.0
Compound: NC(=O)c1cc(C(F)(F)F)cc(C(F)(F)F)c1 [fragment 51, reference compound]

The remaining lines, values behind:

Compound: O=C(Oc1ccc([N+](=O)[O-])cc1[N+](=O)[O-])c1cc(C(F)(F)F)cc(C(F)(F)F)c1 [fragment 31, 2,4-Dinitrophenyl 3,5-bis(trifluoromethyl)benzoate]
isoTOP-ABPP reactivity ratio at lysine Q9NUJ1_K185 [1]: 4.4
isoTOP-ABPP reactivity ratio at lysine Q9GZQ8_K51 [3]: 1.1

Compound: COc1cc(CCC(=O)Oc2ccc([N+](=O)[O-])cc2[N+](=O)[O-])cc(OC)c1OC [fragment 33, 2,4-Dinitrophenyl 3-(3,4,5-trimethoxyphenyl)propanoate]
isoTOP-ABPP reactivity ratio at lysine Q9NUJ1_K185 [1]: 2.1
isoTOP-ABPP reactivity ratio at lysine Q9GZQ8_K51 [3]: 0.8

Compound: O=C(Oc1ccc([N+](=O)[O-])cc1[N+](=O)[O-])C1CCN(C(=O)OCc2ccccc2)CC1 [fragment 34, 1-Benzyl 4-(2,4-dinitrophenyl) piperidine-1,4-dicarboxylate]
isoTOP-ABPP ratio (R) at liganded lysine Q9NUJ1_K185 [1]: 1.5
isoTOP-ABPP ratio (R) at liganded lysine Q9GZQ8_K51 [3]: 1.0

Compound: O=C(CCc1coc2cc(F)ccc2c1=O)Oc1ccc([N+](=O)[O-])cc1[N+](=O)[O-] [fragment 36, 2,4-Dinitrophenyl 3-(7-fluoro-4-oxo-4H-chromen-3-yl)propanoate]
isoTOP-ABPP ratio (R) at liganded lysine Q9NUJ1_K185 [1]: 1.4
isoTOP-ABPP ratio (R) at liganded lysine Q9GZQ8_K51 [3]: 0.8

Compound: O=C(CC12CC3CC(CC(C3)C1)C2)Oc1ccc([N+](=O)[O-])cc1[N+](=O)[O-] [fragment 38, 2,4-Dinitrophenyl 2-(adamantan-1-yl)acetate]
isoTOP-ABPP ratio (R) at liganded lysine Q9NUJ1_K185 [1]: 3.3
isoTOP-ABPP ratio (R) at liganded lysine Q9GZQ8_K51 [3]: 0.8

Compound: O=C(Oc1ccc([N+](=O)[O-])cc1[N+](=O)[O-])c1ccc(Oc2ccccc2)cc1 [fragment 39, 2,4-Dinitrophenyl 4-phenoxybenzoate]
isoTOP-ABPP ratio (R) at liganded lysine Q9NUJ1_K185 [1]: 1.0
isoTOP-ABPP ratio (R) at liganded lysine Q9GZQ8_K51 [3]: 0.9

Compound: O=C(Oc1ccc([N+](=O)[O-])cc1[N+](=O)[O-])c1ccccc1Nc1cccc(C(F)(F)F)c1 [fragment 40, 2,4-Dinitrophenyl 2-((3-(trifluoromethyl)phenyl)amino)benzoate]
isoTOP-ABPP ratio (R) at liganded lysine Q9NUJ1_K185 [1]: 0.9
isoTOP-ABPP ratio (R) at liganded lysine Q9GZQ8_K51 [3]: 1.0

Compound: O=C(Oc1ccc([N+](=O)[O-])cc1[N+](=O)[O-])C(c1ccccc1)(c1ccccc1)c1ccccc1 [fragment 42, 2,4-Dinitrophenyl 2,2,2-triphenylacetate]
isoTOP-ABPP ratio (R) at liganded lysine Q9NUJ1_K185 [1]: 1.0
isoTOP-ABPP ratio (R) at liganded lysine Q9GZQ8_K51 [3]: 0.9

Compound: CC(=O)Oc1ccc([N+](=O)[O-])cc1[N+](=O)[O-] [fragment 43, 2,4-Dinitrophenyl acetate]
isoTOP-ABPP ratio (R) at liganded lysine Q9NUJ1_K185 [1]: 1.3
isoTOP-ABPP ratio (R) at liganded lysine Q96HE7_K413 ([2]; sol, 231): 2.0

Compound: O=C(CCc1ccc2c(c1)OCO2)Oc1ccc([N+](=O)[O-])cc1[N+](=O)[O-] [fragment 45, 2,4-Dinitrophenyl 3-(benzo[d][1,3]dioxol-5-yl)propanoate]
isoTOP-ABPP ratio, lysine Q9NUJ1_K185 ([1]; 50 uM_231_sol_in vitro): 1.2
isoTOP-ABPP ratio, lysine Q9GZQ8_K51 ([3]; 50 uM_231_sol_in vitro): 1.0

Compound: O=C(Oc1c(F)c(F)cc(F)c1F)c1cc(C(F)(F)F)cc(C(F)(F)F)c1 [fragment 48, 2,3,5,6-Tetrafluorophenyl 3,5-bis(trifluoromethyl)benzoate]
isoTOP-ABPP ratio, lysine Q9NUJ1_K185 ([1]; 50 uM_231_sol_in vitro): 2.7
isoTOP-ABPP ratio, lysine Q9GZQ8_K51 ([3]; 50 uM_231_sol_in vitro): 0.8

Compound: COC(=O)NC(=NC(=O)OCC1c2ccccc2-c2ccccc21)n1cccn1 [fragment 49, N-Methoxycarbonyl-N′-9-fluorenylmethoxycarbonyl-pyrazole-1-carboxamidine]
isoTOP-ABPP ratio, lysine Q9NUJ1_K185 ([1]; 100 uM_231_sol_in vitro): 1.5
isoTOP-ABPP ratio, lysine Q9GZQ8_K51 ([3]; 100 uM_231_sol_in vitro): 1.6
